Reference: patent US20160081973A1, “ACTIVATOR OF MITOCHONDRIA” (FLORA CO., LTD., priority 2013, published 2016)

How the values were obtained:
Format in all cases: cell-based, human
HL60 cells [1] = assay: Cell differentiation induction test, NBT reduction staining (differentiation into neutrophils); conditions: for differentiation ratio (ratio of NBT-stained cells): after 10 days of culture
Protocol: (§1) To each well of a 6-well plate, 1 mL of HL60 cells were plated at a concentration of 5×10^4 cells/mL, and a test substance at five serial concentrations (a 10-fold dilution series ranging from 10%) was added to the well at the same time as the plating. The cells in the plate were cultured for 5 days or 10 days under 5% […] at 37° C. The cell suspension in each well was recovered by centrifugation, and the number of cells, the NBT reducing capacity, and the esterase activity of the recovered cells were measured. In addition, changes in the karyotype of each cell was observed by Carrazzi's hematoxylin staining. The ratio of stained cells in each sample was measured to evaluate the differentiation induction capacity. The test was carried out in 5 replicates (n=5). A sample without addition of the test substance, and 0.1% ethyl alcohol (solvent control for the positive control) were used as negative controls, and retinoic acid (dissolved in ethyl alcohol; final concentration, 1 μM) and active vitamin D3 (dissolved in ethyl alcohol; final concentration, 10 nM) were used as positive controls. Details of each staining method are described below.
The concentration of the recovered cells was adjusted to 1×10^6 cells/mL with RPMI 1640 medium (SIGMA, R8758, serum-free), and an equal volume of NBT solution (PBS supplemented with 0.2% NBT and 20% FBS, which was used after filtration) was added thereto. TPA was added to the resulting mixture to a final concentration of 6 μM, and the mixture was then stirred. Thereafter, the mixture was left to stand at 37° C. for 30 minutes, and centrifuged at 1000 rpm for 5 minutes, followed by discarding the supernatant. Subsequently, the cells were resuspended in PBS, and applied onto a slide glass, followed by counting cells stained blue under the microscope.

HL60 cells [2] = assay: Cytotoxicity test (mitochondrial activity level, counting of viable cells with WST-8); conditions: 3 days of culture, FIG. 1
Protocol: HL60 cells were cultured using a test medium (RPMI 1640 medium, 10% FBS, antibiotic-free) to the logarithmic growth phase in a CO: incubator (5% Cq, 37° C.). 2) Cytotoxicity Test (Evaluation of the Toxicity Based on the Viability, that is, the Survival Rate or the Death Rate, of Cells) To each well of a 96-well plate, 0.1 mL of HL6O cells were plated at a concentration of 5×10^4 cells/mL, and a test substance (7 serial dilutions: a 10-fold dilution series ranging from 10%; the test substance was preliminarily sterilized by filtration) was added to the well at the same time. After 3 days of the culture, a viable cell assay reagent SF (final concentration, 10%) was added to the cell suspension culture liquid, and viable cells were counted. The test was carried out in 3 replicates (n=3). The viability of the cells was evaluated using a viable cell counting reagent SF (WST-8) based on measurement of the absorbance.

HL60 cells [3] = assay: DNA methylation level in HL60 cells; conditions: 10 days of culture, FIG. 7
HL60 cells [4] = assay: Cell differentiation induction test, esterase staining (differentiation into monocytes); conditions: final concentration 1 μM
Protocol: as §1
Esterase staining was carried out as follows using an esterase staining kit (manufactured by Muto Pure Chemicals Co., Ltd.). The concentration of the recovered cells was adjusted to 1×10^6 cells/mL with PBS. […]

HL60 cells [5] = assay: Counting of viable cells by trypan blue staining; conditions: positive control; solvent control 1.0×10^−5% DMSO; 5 days of culture; FIG. 8
Protocol: In each of T25 flasks, 5 mL of HL60 cells were seeded at 1×10^7 cells/flask. At the same time as the seeding, test substances (ethyl alcohol, retinoic acid, dimethyl sulfoxide, rotenone, SDW, and Examples 3 and 4) were fed to the flasks.
The addition of Example 3 to the medium was carried out after its sterilization by filtration. In Example 4, 10 mL of the test substance was warmed at 60° C. to evaporate the whole solvent, and 10 mL of sterile water was newly added thereto to dissolve the resultant. The resulting solution was sterilized by filtration, and then added to the medium. The retinoic acid to be added was provided as a concentrated solution containing retinoic acid at a concentration of 100 mM in ethyl alcohol, and the rotenone to be added was provided as a concentrated solution containing rotenone at a concentration of 100 mM in DMSO. […]
To 50 μL of a cell suspension culture liquid, 50 μL of a trypan blue solution was added, and the reaction was allowed to proceed for several minutes. Under the microscope, unstained cells and stained cells were counted using a hemocytometer. The number of dead cells (stained cells) per total number of cells was determined to calculate the number of live cells (cells/mL) and the dead cell ratio (%).

**Q.** For `C=C1/C(=C\C=C2/CCC[C@]3(C)[C@@H]([C@H](C)CCCC(C)(C)O)CC[C@@H]23)C[C@@H](O)C[C@@H]1O` [active vitamin D3, reference compound], which “differentiation ratio (ratio of NBT-stained cells)” value (HL60 cells [1]; final concentration 10 nM, decreased by half) is on record?
**A.** Its value is 4%.

**Q.** Which “mitochondrial activity (absorbance, viable cell count)” value (HL60 cells [2]; concentration 0.1% (30 ng/mL=0.03 μg/mL) to 10% (300 μg/mL)) does the source give for `O=c1c(O)c(-c2ccc(O)cc2)oc2cc(O)cc(O)c12` [kaempferol] here?
**A.** Its value is “increased”.

**Q.** And the “mitochondrial activity (absorbance, viable cell count)” value (HL60 cells [2]; concentration 3.2×10^−4% to 0.032%)?
**A.** Its value is “suppressed”.

**Q.** What about the “DNA methylation level in the HL60 cells” value (HL60 cells [3]; concentration 0.001%) of the same compound?
**A.** The value was “increased”.

**Q.** And the “DNA methylation level in the HL60 cells” value (HL60 cells [3]; concentration 10% (300 μg/mL))?
**A.** The value was “decreased”.

**Q.** And the “differentiation ratio (ratio of NBT-stained cells)” value (HL60 cells [1]; 300 μg)?
**A.** The value was 3%.

**Q.** And the “differentiation ratios (NBT-stained cells) on Day 10 of the culture, change” value (HL60 cells [1]; Day 10 of the culture, FIG. 4)?
**A.** The value was “decreased”.

**Q.** And the “differentiation ratio (NBT-stained cells), trend” value (HL60 cells [1]; after 5 days of culture, FIG. 3)?
**A.** The value was “concentration-dependent improvement”.

**Q.** Which results are given for `CC1=C(/C=C/C(C)=C/C=C/C(C)=C/C(=O)O)C(C)(C)CCC1` [retinoic acid]?
**A.** differentiation ratio (ratio of NBT-stained cells) (HL60 cells [1]; final concentration 1 μM): 68%; differentiation into monocytes (ratio of esterase-stained cells) (HL60 cells [4]; Day 5 of the culture): 2%; differentiation into monocytes (ratio of esterase-stained cells) (HL60 cells [4]; Day 10 of the culture): 14%

**Q.** `C=C(C)[C@H]1Cc2c(ccc3c2O[C@@H]2COc4cc(OC)c(OC)cc4[C@@H]2C3=O)O1` [rotenone] was tested. Which “viable cell count by trypan blue staining versus solvent control” value (HL60 cells [5]) did it give?
**A.** Its value is “decreased to about half”.
